Results on six compounds are retold here after PubChem BioAssay AID1918953 (Molecular Pharmacology Branch, DTP, NCI, 2023).

As usually defined, the IC50 is the midpoint of a concentration-inhibition curve. As a reminder, the viability, T/C is the ratio of treated to control.

Several values for one entry are separate records, joined by “and”; a condition that tells them apart may be missing. Equal values may be shown once. Some results are limits rather than exact numbers.

In this assay the test system is MDA-MB-231 complex spheroid viability. As to the kind of experiment: Anticancer human tumor MDA-MB-231/ATCC cell line growth inhibition.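 On all read-outs here: drug exposure lasted 7 days starting on day 3 of spheroid growth.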 As to conditions: for viability, T/C: stronger effect = lower value. The method in brief:
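Multicellular complex spheroids of tumor cells with human endothelial cells (HUVEC) and mesenchymal stem cells; the LSD1 inhibitor iadademstat was combined with standard-of-care or investigational agents. Top concentration at or near clinical Cmax, half-log dilutions; final DMSO ≤0.25%.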

Setting [1] is: curve of first compound, second compound 0.1 µM.
The mark [2] stands for this setting: curve of first compound, second compound 0.316 µM.
Where [3] appears, read: curve of first compound, second compound 1 µM.
The mark [4] stands for this setting: curve of first compound, second compound 3.16 µM.
[5] abbreviates: curve of first compound, second compound 10 µM.
The mark [6] stands for this setting: second compound 0.1 µM, first compound 0.00949 µM.
[7] abbreviates: second compound 0.1 µM, first compound 0.03 µM.
The mark [8] stands for this setting: second compound 0.1 µM, first compound 0.0949 µM.
Where [9] appears, read: second compound 0.1 µM, first compound 0.3 µM.
[10] abbreviates: second compound 0.1 µM, first compound 0.949 µM.
Setting [11] is: second compound 0.1 µM, first compound 3 µM.
[12] abbreviates: second compound 0.316 µM, first compound 0.00949 µM.
The mark [13] stands for this setting: second compound 0.316 µM, first compound 0.03 µM.
Setting [14] is: second compound 0.316 µM, first compound 0.0949 µM.
Where [15] appears, read: second compound 0.316 µM, first compound 0.3 µM.
The mark [16] stands for this setting: second compound 0.316 µM, first compound 0.949 µM.
[17] abbreviates: second compound 0.316 µM, first compound 3 µM.
Setting [18] is: second compound 1 µM, first compound 0.00949 µM.
[19] abbreviates: second compound 1 µM, first compound 0.03 µM.
[20] abbreviates: second compound 1 µM, first compound 0.0949 µM.
Setting [21] is: second compound 1 µM, first compound 0.3 µM.
Setting [22] is: second compound 1 µM, first compound 0.949 µM.
Where [23] appears, read: second compound 1 µM, first compound 3 µM.
Where [24] appears, read: second compound 3.16 µM, first compound 0.00949 µM.
[25] abbreviates: second compound 3.16 µM, first compound 0.03 µM.
Setting [26] is: second compound 3.16 µM, first compound 0.0949 µM.
Where [27] appears, read: second compound 3.16 µM, first compound 0.3 µM.
Setting [28] is: second compound 3.16 µM, first compound 0.949 µM.
The mark [29] stands for this setting: second compound 3.16 µM, first compound 3 µM.
Setting [30] is: second compound 10 µM, first compound 0.00949 µM.
[31] abbreviates: second compound 10 µM, first compound 0.03 µM.
Where [32] appears, read: second compound 10 µM, first compound 0.0949 µM.
The mark [33] stands for this setting: second compound 10 µM, first compound 0.3 µM.
Setting [34] is: second compound 10 µM, first compound 0.949 µM.
Where [35] appears, read: second compound 10 µM, first compound 3 µM.

Consider `CC[C@@]1(O)C(=O)OCc2c1cc1n(c2=O)Cc2cc3c(CN(C)C)c(O)ccc3nc2-1` + NC1CCC(NC2CC2c2ccccc2)CC1, for which the IC50 reads like this: under setting [1], 0.00237 µM; under setting [2], 0.00218 µM; under setting [3], 0.00228 µM; under setting [4], 0.00146 µM; under setting [5], 0.000603 µM. The viability, T/C is, setting by setting: (second compound 0.1 µM, first compound 0.000316 µM) 91.6%; (second compound 0.1 µM, first compound 0.001 µM) 70.6%; (second compound 0.1 µM, first compound 0.00316 µM) 40.3%; (second compound 0.1 µM, first compound 0.01 µM) 29.1%; (second compound 0.1 µM, first compound 0.0316 µM) 22.5%; (second compound 0.1 µM, first compound 0.1 µM) 13%. The viability, T/C is 87.6% (second compound 0.316 µM, first compound 0.000316 µM); 66.3% (second compound 0.316 µM, first compound 0.001 µM); 40% (second compound 0.316 µM, first compound 0.00316 µM); 28.9% (second compound 0.316 µM, first compound 0.01 µM); 22.2% (second compound 0.316 µM, first compound 0.0316 µM); 12.4% (second compound 0.316 µM, first compound 0.1 µM). Moreover, the viability, T/C is 87.3% (second compound 1 µM, first compound 0.000316 µM); 69.6% (second compound 1 µM, first compound 0.001 µM); 38.9% (second compound 1 µM, first compound 0.00316 µM); 29.7% (second compound 1 µM, first compound 0.01 µM); 22.4% (second compound 1 µM, first compound 0.0316 µM); 13.2% (second compound 1 µM, first compound 0.1 µM). Also, the viability, T/C is 74.4% (second compound 3.16 µM, first compound 0.000316 µM); 56.8% (second compound 3.16 µM, first compound 0.001 µM); 36.5% (second compound 3.16 µM, first compound 0.00316 µM); 28.9% (second compound 3.16 µM, first compound 0.01 µM); 19.9% (second compound 3.16 µM, first compound 0.0316 µM); 13.2% (second compound 3.16 µM, first compound 0.1 µM). Besides, the viability, T/C is, setting by setting: (second compound 10 µM, first compound 0.000316 µM) 57.8%; (second compound 10 µM, first compound 0.001 µM) 44.2%; (second compound 10 µM, first compound 0.00316 µM) 31.3%; (second compound 10 µM, first compound 0.01 µM) 23.2%; (second compound 10 µM, first compound 0.0316 µM) 16%; (second compound 10 µM, first compound 0.1 µM) 12.2%.
For the compound `CC1COCCN1c1cc(-c2ccnn2C)c2ccnc(-c3ccn[nH]3)c2n1` (stereo not given), the viability, T/C was 92.8% and 41% (compound 0.00316 µM); 80.5% and 30.1% (compound 0.01 µM); 51.5% and 19.3% (compound 0.0316 µM); 35.9% and 18.3% (compound 0.1 µM); 31.8% and 18.9% (compound 0.316 µM); 28.6% and 22.4% (compound 1 µM).
Turning to `CCN(c1cc(-c2ccc(CN3CCOCC3)cc2)cc(C(=O)NCc2c(C)cc(C)[nH]c2=O)c1C)C1CCOCC1` + NC1CCC(NC2CC2c2ccccc2)CC1, the concentration for half-maximal inhibition (IC50) was greater than 3 µM under setting [1]; greater than 3 µM under setting [2]; greater than 3 µM under setting [3]; greater than 3 µM under setting [4]; 0.587 µM under setting [5]. Further, the viability, T/C under setting [6] is 104%; the viability, T/C under setting [7] was 93.3%; the viability, T/C under setting [8] was 80.4%; the viability, T/C under setting [9] was 74.6%; the viability, T/C under setting [10] is 70.1%; the viability, T/C under setting [11] was 59.8%. The viability, T/C was 98.4% under setting [12]; 94% under setting [13]; 81.1% under setting [14]; 73.5% under setting [15]; 68.4% under setting [16]; 59.5% under setting [17]. The viability, T/C was 95.2% under setting [18]; 91.1% under setting [19]; 75.1% under setting [20]; 75.8% under setting [21]; 64% under setting [22]; 58.4% under setting [23]. In addition, the viability, T/C was 78% under setting [24]; 73.2% under setting [25]; 65.4% under setting [26]; 66% under setting [27]; 60% under setting [28]; 55.2% under setting [29]. For the same compound, the viability, T/C by setting is: under setting [30], 55.9%; under setting [31], 61.5%; under setting [32], 54.8%; under setting [33], 48.6%; under setting [34], 50.5%; under setting [35], 43.5%.
In the case of `O=C(C=Cc1cccc(S(=O)(=O)Nc2ccccc2)c1)NO` + NC1CCC(NC2CC2c2ccccc2)CC1, the half-maximal inhibitory concentration (IC50) was 0.113 µM under setting [1]; 0.106 µM under setting [2]; 0.0662 µM under setting [3]; 0.0219 µM under setting [4]; less than 0.00949 µM under setting [5]. Moreover, the viability, T/C under setting [6] is 90.7%; the viability, T/C under setting [7] is 75.7%; the viability, T/C under setting [8] was 53%; the viability, T/C under setting [9] is 30.5%; the viability, T/C under setting [10] was 13.7%; the viability, T/C under setting [11] was 0.59%. For the same compound, the viability, T/C reads like this: under setting [12], 86.3%; under setting [13], 69.6%; under setting [14], 53.5%; under setting [15], 30.8%; under setting [16], 14.1%; under setting [17], 1.38%. The viability, T/C is 79.1% under setting [18]; 61.8% under setting [19]; 43.6% under setting [20]; 30.3% under setting [21]; 11.3% under setting [22]; 0.68% under setting [23]. The viability, T/C runs as follows: under setting [24], 61.4%; under setting [25], 45.3%; under setting [26], 31%; under setting [27], 20.8%; under setting [28], 6.19%; under setting [29], 0.34%. For the same compound, the viability, T/C reads like this: under setting [30], 39.8%; under setting [31], 29.8%; under setting [32], 17.9%; under setting [33], 13.9%; under setting [34], 3.39%; under setting [35], 0.33%.
With `NS(=O)(=O)OCC1CC(n2ccc3c(NC4CCc5ccccc54)ncnc32)CC1O` (stereo not given), the viability, T/C was 140% and 117% (compound 0.00949 µM); 119% and 91% (compound 0.03 µM); 71.6% and 43.9% (compound 0.0949 µM); 43.7% and 22.5% (compound 0.3 µM); 37.5% and 26.5% (compound 0.949 µM); 34.5% and 26.1% (compound 3 µM). Moreover, the IC50 (curve of compound) was 0.23 µM and 0.0799 µM.
Consider `COc1cc(C2c3cc4c(cc3C(OC3OC5COC(C)OC5C(O)C3O)C3COC(=O)C23)OCO4)cc(OC)c1O` (stereo not given), for which the viability, T/C was 96.1% and 79.9% (compound 0.00949 µM); 76.1% and 47.9% (compound 0.03 µM); 49.9% and 32.6% (compound 0.0949 µM); 35% and 22.9% (compound 0.3 µM); 13.5% and 10.3% (compound 0.949 µM); 6.1% and 8.34% (compound 3 µM). For the same compound, for the setting “curve of compound”, the IC50 is 0.108 µM and 0.0306 µM.
